Reference: US9487489B2, “Halogen-substituted pyrazole derivatives as pest-control agents” (BAYER CROPSCIENCE AKTIENGESELLSCHAFT, priority 2013, dated 2016)

Columns and labels:
[1] = system: engorged adult female cattle ticks (Boophilus microplus); assay: Boophilus microplus injection test (BOOPMI Inj); format: in vivo; conditions: application rate 20 μg/animal; injection into abdomen; assessed after 7 days
Summary of the method: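 Efficacy is read at 7 days as fertile egg laying (100% = no fertile eggs laid; 0% = all eggs fertile), with eggs of unclear fertility stored until larvae hatch at about 42 days. Five engorged adult females per dose each receive an abdominal injection of 1 μl compound dissolved in DMSO.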

[2] = system: greenhouse red spider mite (Tetranychus urticae); assay: Tetranychus urticae spray test, OP-resistant (TETRUR); format: in vivo; conditions: bean leaf discs, after 6 days
Summary of the method: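 Percent kill, scored 6 days post-spray (0% = none dead, 100% = all dead), on Phaseolus vulgaris leaf discs infested with every life stage of the OP-resistant spider mite. Compound dissolved in acetone plus DMF, diluted to test concentration with emulsifier-containing water (1000 ppm).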

[3] = system: green peach aphid (Myzus persicae); assay: Myzus persicae spray test (MYZUPE); format: in vivo; conditions: Chinese cabbage leaf discs, after 6 days
Method: G. Myzus persicae-spray Test (MYZUPE)
Solvents: 78 parts by weight of acetone
• 1.5 parts by weight of dimethylformamide Emulsifier: alkylaryl polyglycol ether
To produce a suitable preparation of active compound, 1 part by weight of active compound is dissolved using the stated parts by weight of solvent and made up with water comprising an emulsifier concentration of 1000 ppm until the desired concentration is reached. To produce further test concentrations, the preparation is diluted with emulsifier-containing water.
Discs of Chinese cabbage leaves (Brassica pekinensis) infested by all stages of the green peach aphid (Myzus persicae) are sprayed with an active compound preparation of the desired concentration.
After 6 days, the efficacy in % is determined 100% here means that all of the aphids have been killed; 0% means that no aphids have been killed.

[4] = system: larvae of the mustard beetle (Phaedon cochleariae); assay: Phaedon cochleariae spray test (PHAECO); format: in vivo; conditions: Chinese cabbage leaf discs, after 7 days
Summary of the method: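 Kill of mustard beetle larvae is read as % mortality 7 days after spraying. Spray liquid: active compound in acetone plus dimethylformamide, brought up with water holding 1000 ppm alkylaryl polyglycol ether emulsifier and diluted further in emulsifier-water.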

[5] = system: L1 larvae of the Australian sheep blowfly (Lucilia cuprina); assay: Lucilia cuprina test (LUCICU); format: in vivo; conditions: application rate 100 ppm; after 2 days
Summary of the method: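 Percent mortality read at 2 days; 100% = all larvae killed, 0% = none. Test compound, predissolved in DMSO and water-diluted to the wanted level, was mixed into minced horsemeat holding roughly 20 first-instar larvae.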

[6] = system: caterpillars of the armyworm (Spodoptera frugiperda); assay: Spodoptera frugiperda spray test (SPODFR); format: in vivo; conditions: maize leaf discs, after 7 days
Summary of the method: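 Percent kill read at day 7 on caterpillar-infested maize leaf discs. Discs were first sprayed with aqueous emulsifier-containing (1000 ppm) preparations made from acetone/dimethylformamide solutions, and dried. Scale: 0% none dead, 100% all dead.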

[7] = system: adult cat fleas (Ctenocephalides felis); assay: Ctenocephalides felis oral test (CTECFE); format: in vivo; conditions: application rate 100 ppm in citrated cattle blood; after 2 days
Summary of the method: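 Mortality read at 2 days as percent of fleas killed. Compound predissolved in DMSO, diluted into citrated cattle blood and offered to roughly 20 unfed adult C. felis via parafilm membrane feeder.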

[8] = system: cattle ticks (Boophilus microplus) Parkhurst strain, SP-resistant; assay: Boophilus microplus dip test (BOOPMI Dip); format: in vivo; conditions: application rate 100 ppm, assessed after 7 days
Method: B. Boophilus microplus-dip Test (BOOPMI Dip)
Test animals: cattle ticks (Boophilus microplus) Parkhurst strain, SP-resistant
Solvent: dimethyl sulphoxide
10 mg of active compound are dissolved in 0.5 ml of dimethyl sulphoxide. For the purpose of preparing a suitable formulation, the active compound solution is diluted with water to the concentration desired in each case.
This active compound preparation is pipetted into tubes. 8-10 adult engorged female cattle ticks (Boophilus microplus) are transferred into a further tube with holes. The tube is immersed into the active compound formulation, and all ticks are completely wetted. After the liquid has run out, the ticks are transferred on filter discs into plastic dishes and stored in a climate-controlled room.
The activity is assessed after 7 days by laying of fertile eggs. Eggs whose fertility is not visible from the outside are stored in a climate-controlled cabinet until the larvae hatch after about 42 days. An efficacy of 100% means that none of the ticks has laid any fertile eggs; 0% means that all eggs are fertile.

[9] = system: adult houseflies (Musca domestica); assay: Musca domestica test (MUSCDO); format: in vivo; conditions: application rate 100 ppm; after 2 days
Summary of the method: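 Groups of 10 adult Musca domestica exposed to a sugar-soaked sponge treated with the water-diluted DMSO preparation of compound at the chosen concentration. Percent kill read at day 2, where 0% means no flies killed and 100% all killed.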

[10] = system: adult cat fleas (Ctenocephalides felis); assay: Ctenocephalides felis in vitro contact test with adult cat fleas (T1); conditions: after 48 h
Summary of the method: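 Adult cat fleas (Ctenocephalides felis), 5-10 per tube, were exposed to the inner surface of 25 ml test tubes coated with compound in acetone. Tubes were incubated lying flat under ambient conditions. Efficacy was then read by standing tubes upright and knocking the fleas to the floor. Fleas that stayed motionless or moved uncoordinatedly counted as dead or moribund, where 100% means all fleas dead or moribund and 0% means none harmed.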

[11] = logP determination by HPLC on a reversed-phase column (C18), EEC Directive 79/831 Annex V.A8; format: physicochemical; conditions: HPLC on reversed-phase column (C18), acetonitrile/water with formic acid, EEC Directive 79/831 Annex V.A8
Summary of the method: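 Per EEC 79/831 Annex V.A8, values derive from HPLC retention at 2.0 ml/min and 55° C on a 50*4.6 C18 column. The 10→95% acetonitrile gradient (0.1%/0.09% formic acid) lasted 4.25 min plus a 1.25 min hold; mass detection was by MSD.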

[12] = system: adult dog ticks (Rhipicephalus sanguineus); assay: Rhipicephalus sanguineus in vitro contact test with adult brown dog ticks (T2); conditions: after 48 h
Summary of the method: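 Acetone solutions coated onto test tube walls and floor, giving 5 μg/cm^2 at 900 ppm. Five to ten adult ticks held per tube in the dark at room temperature for 48 h, then heated at 45-50° C for up to 5 min; efficacy is the percentage of dead or moribund ticks unable to climb away.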

Row | SMILES | efficacy (laying of fertile eggs) [1] [%] | efficacy in % ([2]; application rate 500 g/ha) [%] | efficacy in % ([3]; application rate 500 g/ha) [%] | efficacy in % ([4]; application rate 500 g/ha) [%] | efficacy (kill in %) [5] [%] | efficacy in % ([6]; application rate 500 g/ha) [%] | efficacy (kill in %) [7] [%] | efficacy (laying of fertile eggs) [8] [%] | efficacy (kill in %) [9] [%] | efficacy (dead or moribund fleas) ([10]; application rate 1 μg/cm^2) [%] | efficacy (dead or moribund fleas) ([10]; application rate 5 μg/cm^2) [%] | efficacy in % ([2]; application rate 100 g/ha) [%] | efficacy in % ([3]; application rate 100 g/ha) [%] | efficacy in % ([4]; application rate 100 g/ha) [%] | efficacy in % ([6]; application rate 100 g/ha) [%] | logP [11] | efficacy (dead or moribund ticks) ([12]; application rate 1 μg/cm^2) [%] | efficacy (dead or moribund ticks) ([12]; application rate 5 μg/cm^2) [%]
1 | Cn1ccc(NC(=O)c2cc(-c3cnn(-c4c(C(F)(F)F)c(C(F)(F)C(F)(F)F)nn4C)c3)ccc2Cl)n1 [Ic-159] | 100 | 100 | 100 | 100 | 100 | 100 | 100 | 80 | 100 | 100 | 100 |  |  |  |  |  |  | 
2 | Cn1nc(C(F)(F)C(F)(F)F)c(C(F)(F)F)c1-n1cc(-c2ccc(Cl)c(C(=O)NCC(C)(F)F)c2)cn1 [Ic-80] | 100 |  |  |  | 100 |  | 100 | 80 | 100 |  |  | 100 | 90 | 100 | 100 | 4.05 |  | 
3 | C=C=CCNC(=O)c1cc(-c2cnn(-c3c(C(F)(F)F)c(C(F)(F)C(F)(F)F)nn3C)c2)ccc1Cl [Ic-111] |  |  |  |  |  |  |  | 100 |  | 100 | 100 | 100 | 100 | 100 | 100 | 4.04 | 100 | 100
4 | C#CCNC(=O)c1cc(-c2cnn(-c3c(C(F)(F)F)c(C(F)(F)C(F)(F)F)nn3C)c2)ccc1Cl [Ic-109] |  |  |  |  |  |  |  | 100 |  | 100 | 100 | 100 | 100 | 100 | 100 | 3.69 | 100 | 100
5 | COCCNC(=O)c1cc(-c2cnn(-c3c(C(F)(F)F)c(C(F)(F)C(F)(F)F)nn3C)c2)ccc1Cl [Ic-139] | 100 | 100 | 100 | 100 |  | 100 | 100 | 100 |  | 100 | 100 |  |  |  |  |  |  | 
6 | Cn1nc(C(F)(F)C(F)(F)F)c(C(F)(F)F)c1-n1cc(-c2ccc(Cl)c(C(=O)NC3(C(N)=O)CC3)c2)cn1 [Ic-29] | 100 |  |  |  | 100 |  | 100 | 80 | 100 | 100 | 100 |  |  | 100 | 100 | 3.07 |  | 
7 | Cn1nc(C(F)(F)F)c(CF)c1-n1cc(-c2ccc(Cl)c(C(=O)NC3CC3)c2)cn1 [Ic-103] | 100 |  |  |  | 100 |  | 100 | 90 | 80 |  |  | 100 |  | 100 | 100 | 2.89 | 100 | 100
